Laboratory results published in patent US7569563B2, “Substituted quinolones II” (AiCuris GmbH & Co. HK, priority 2005, dated 2009).
Where a name gives a salt, the structure may show the parent alone.

Legend:
[1] = Cytostatic effects on NHDF cells in the anti-HCMV cytopathogenicity test; assay type: cell-based; conditions: human, human prepuce fibroblasts (NHDF cells); substance concentration at which no visible cytostatic effects on NHDF cells are evident vs untreated cell control; 6 days incubation
Description: (§1) Anti-HCMV (Anti-Human Cytomegalovirus) Cytopathogenicity Tests The test compounds are employed as 50 millimolar (mM) solutions in dimethyl sulfoxide (DMSO). Ganciclovir®, Foscamet® and Cidofovir® are used as reference compounds. After the addition of in each case 2 μl of the 50, 5, 0.5 and 0.05 mM DMSO stock solutions to 98 μl portions of cell culture medium in row […] for duplicate determinations, 1:2 dilutions are carried out with 50 μl portions of medium up to row 1 l of the 96-well plate. The wells in rows 1 and 12 each contain 50 μl of medium. 150 μl of a suspension of 1×10^4 cells (human prepuce fibroblasts [NHDF]) are then pipetted into each of the wells (row I=cell control) and, in rows 2-12, a mixture of HCMV-infected and uninfected NHDF cells (M.O.I.=0.001-0.002), i.e. 1-2 infected cells per 1000 uninfected cells. Row 12 (without substance) serves as virus control. The final test concentrations are 250-0.0005 μM. The plates are incubated at 37° C./5% CO2 for 6 days, i.e. until all the cells are infected in the virus controls (100% cytopathogenic effect [CPE]). The wells are then fixed and stained by the addition of a mixture of formalin and Giemsa's dye (30 minutes), washed with double-distilled water and dried in a drying oven at 50° C. The plates are then assessed visually using an overhead microscope (plaque multiplier from Technomara). The following data can be acquired from the test plates: CC50 (NHDF)=substance concentration in μM at which no visible cytostatic effects on the cells are evident compared with the untreated cell control;

HCMV = test: Anti-HCMV (anti-human cytomegalovirus) cytopathogenicity test; assay type: cell-based; conditions: for EC50: Human betaherpesvirus 5, 144 h, concentration inhibiting CPE by 50% vs untreated virus control, HCMV-infected NHDF cells, M.O.I. 0.001-0.002, 6 days; for SI HCMV (selectivity index): SI = CC50 (NHDF)/EC50 (HCMV)
Description: as §1, with “plates: EC50 (HCMV)=substance” for “plates: CC50 (NHDF)=substance”, “μM” for “μM at”, “which inhibits” for “which no visible cytostatic effects on”, “the CPE (cytopathic effect) by 50%” for “the cells are evident”, “untreated virus” for “untreated cell”, “control; SI (selectivity index)=CC50 (NHDF)/EC50 (HCMV).” for “control;”

EC50 (HCMV) [µM] | Structure (SMILES) | CC50 at 6 days [1] [µM] | SI HCMV (selectivity index) (HCMV)
0.0023 | COc1c(N2C[C@@H](C)N(CC(=O)O)[C@@H](C)C2)c(F)cc2c(=O)c(C(=O)NCc3ccc(Cl)cc3Cl)cn(CC(F)(F)F)c12 [Example 28, {(2RS,6SR)-4-[3-{[(2,4-Dichlorobenzyl)amino]carbonyl}-6-fluoro-8-methoxy-4-oxo-1-(2,2,2-trifluoroethyl)-1,4-dihydroquinolin-7-yl]-2,6-dimethylpiperazin-1-yl}ethanoic acid hydroformate] | 18 | 8032
0.008 | COc1c(N2C[C@@H](C)N(CC(=O)O)[C@@H](C)C2)c(F)cc2c(=O)c(C(=O)NCc3ccc(Cl)cc3Cl)cn(CCF)c12 [Example 30] | 47 | 5875
0.01 | COc1c(N2C[C@@H](C)N(CC(=O)O)[C@@H](C)C2)c(F)cc2c(=O)c(C(=O)NCc3ccc(Cl)cc3Cl)cn(C3CC3)c12 [Example 29, 4-[3-{1-Cyclopropyl-[(2,4-dichlorobenzyl)amino]carbonyl}-1-fluoro-8-methoxy-4-oxo-1,4-dihydroquinolin-7-yl]-(2RS,6SR)-2,6-dimethylpiperazin-1-yl}ethanoic acid hydrochloride] | 47 | 4700
0.005 | COc1c(N2C[C@@H](C)N(CC(=O)O)[C@@H](C)C2)c(F)cc2c(=O)c(C(=O)NCc3ccc(Cl)cc3C)cn([C@H]3C[C@H]3F)c12 [Example 36] | 24 | 6402
0.019 | CCOC(=O)CN1[C@H](C)CN(c2c(F)cc3c(=O)c(C(=O)NCc4ccc(Cl)cc4Cl)cn(CC(F)(F)F)c3c2OC)C[C@@H]1C [Example 1, Ethyl{(2RS,6SR)-4-[3-{[(2,4-dichlorobenzyl)amino]carbonyl}-6-fluoro-8-methoxy-4-oxo-1-(2,2,2-trifluoroethyl)-1,4-dihydroquinolin-7-yl]-2,6-dimethylpiperazin-1-yl}ethanoate hydroformate] | 11 | 579
0.018 | COc1c(N2C[C@@H](C)N(C(C)C(=O)O)[C@@H](C)C2)c(F)cc2c(=O)c(C(=O)NCc3ccc(Cl)cc3Cl)cn(C3CC3)c12 (stereo partly drawn) [Example 49] | 94 | 5222
